Data: patent US12642791B2, “Inhibitors of lysyl oxidases” (UNIVERSITY OF SOUTH CAROLINA, priority 2021, dated 2026)
Blank lines part the entries; values can stand above or below the molecule they belong to.

Experiments:
LOXL2 [1] = target: T1, LOXL2 (Homo sapiens, UniProt Q9Y4K0); settings: cited from earlier work
T1 sequence (Q9Y4K0 26-774): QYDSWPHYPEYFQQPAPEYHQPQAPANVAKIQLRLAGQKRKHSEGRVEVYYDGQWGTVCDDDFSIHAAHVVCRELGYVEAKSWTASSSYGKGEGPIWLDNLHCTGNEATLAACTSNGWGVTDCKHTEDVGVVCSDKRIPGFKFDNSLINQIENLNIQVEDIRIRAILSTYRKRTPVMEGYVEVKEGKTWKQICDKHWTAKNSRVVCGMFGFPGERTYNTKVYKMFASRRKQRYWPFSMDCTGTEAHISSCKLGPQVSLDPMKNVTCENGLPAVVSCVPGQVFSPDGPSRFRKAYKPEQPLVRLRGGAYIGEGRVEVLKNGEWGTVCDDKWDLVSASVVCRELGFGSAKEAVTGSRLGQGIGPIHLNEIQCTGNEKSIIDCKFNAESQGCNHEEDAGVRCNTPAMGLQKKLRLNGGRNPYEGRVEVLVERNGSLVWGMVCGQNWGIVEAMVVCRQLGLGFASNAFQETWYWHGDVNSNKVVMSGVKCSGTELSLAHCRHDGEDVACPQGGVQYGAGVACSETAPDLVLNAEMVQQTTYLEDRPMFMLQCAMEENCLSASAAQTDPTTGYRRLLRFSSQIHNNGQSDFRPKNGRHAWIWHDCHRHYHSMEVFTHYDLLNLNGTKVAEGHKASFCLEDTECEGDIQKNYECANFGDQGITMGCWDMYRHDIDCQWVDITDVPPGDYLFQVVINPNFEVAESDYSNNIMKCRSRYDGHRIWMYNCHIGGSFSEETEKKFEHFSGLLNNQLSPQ

LOXL3 = LOXL3 (Homo sapiens, UniProt P58215); settings: cited from earlier work
[2] = test system: LOXL2-mediated collagen oxidation and cross-linking; settings: in vitro; cited from earlier work
[3] = test system: kidney fibrosis, lung fibrosis, myelofibrosis and pancreatic cancer models; settings: in vivo; cited from earlier work
[4] = human, in vivo; cited from earlier work
breast cancer models = settings: daily by oral gavage, 70 mg/kg; cited from earlier work
[5] = test system: MDA-MB-231 cells embedded in collagen I; test: ECM crosslinking by collagen and fibronectin immunofluorescence staining; type: cell-based, human
Method: FIG. 31. […] A. Inhibition of LOX activity in MDA-MB-231 cells treated with 5 μM of the LOX inhibitors. B. Doxorubicin sensitization with 6232 and its analogs, 6403 and 6415, in 3D collagen-I culture. C. Collagen and fibronectin staining of vehicle or 6232 or 6403 or 6415-treated MDA-MB-231 cells embedded in collagen I. BAPN is used as a positive control.
Immunofluorescence staining of cells was done in μ-Slide 8-well glass bottom chambers (Ibidi, Germany). Cells were fixed with 4% paraformaldehyde for 20 min, permeabilized with 0.5% Triton X-100 for 10 min and blocked in 5% BSA-PBS. Samples were incubated with primary (Collagen I, Fibronectin, F-actin, a-SMA) and secondary Alexa Fluor 647 or 488-labeled antibodies for 1.5 hours at room temperature. Cells were also counterstained with DAPI for 5 min. Images were acquired using ZEN 2012 SP5 (Black) LSM 700 (Carl Zeiss, DE).

MCF12A = test: Viability assay in normal cells; type: cell-based, human; settings: normal breast cell line
Text: (§1) FIG. 32. 6232 derivatives, 6403 and 6415, show no cytotoxicity in normal cells. Viability assay in normal breast cell line, MCF12A, human foreskin fibroblast cell line, HFF and human endothelial cell line, HUVEC treated with 6403 or 6415.

HFF = test: Viability assay in normal cells; type: cell-based; settings: human foreskin fibroblast cell line
Text: as §1

HUVEC = test: Viability assay in normal cells; type: cell-based; settings: human endothelial cell line
Text: as §1

[6] = test system: cellular lysyl oxidase (LOX) activity, MDA-MB-231 cells; test: Cell-based lysyl oxidase activity assay (Abcam kit); set-up: species or system human; settings: read-out: cellular LOX activity
Text: As the available LOX inhibitors are either not very potent or have toxicity, the inventors developed a robust screening pipeline shown in FIG. 28 to identify potent and safe LOX-specific and pan-LOX inhibitors. Briefly, a high-throughput cell-based LOX activity (Abcam) screen (HTS) was done for more than 5,000 drug-like compounds from the EXPRESS-Pick diversified library (4,480 molecules, ChemBridge) and Tocriscreen library of bioactive compounds (1,280 compounds, Tocris), each at a single concentration of 10 μM. […] The toxic molecules were counter screened with cell cytotoxicity assay and filtered out.
FIGS. 34. […] IC50 for cellular lysyl oxidase activity upon treatment of MDA-MB-231 cells with different LOX inhibitors. uM=microM.
For cell-based lysyl oxidase activity, fluorometric Lysly Oxidase Activity Assay Kit (Abcam, USA) was used according to manufacturer's instructions. Briefly, after the treatment, 50 μl of supernatant from each well was incubated with reagent mix and fluorescence measured in multimode-reader at Ex/Em=540/590 nm wavelength.

LOXL2 [7] = target: T1, LOXL2; set-up: Simtuzumab only targets extracellular LOXL2; host or cells: pancreatic cancer patients; settings: in combination with gemcitabine; cited from earlier work

LOXL3, sequence (P58215 26-753, species assumed): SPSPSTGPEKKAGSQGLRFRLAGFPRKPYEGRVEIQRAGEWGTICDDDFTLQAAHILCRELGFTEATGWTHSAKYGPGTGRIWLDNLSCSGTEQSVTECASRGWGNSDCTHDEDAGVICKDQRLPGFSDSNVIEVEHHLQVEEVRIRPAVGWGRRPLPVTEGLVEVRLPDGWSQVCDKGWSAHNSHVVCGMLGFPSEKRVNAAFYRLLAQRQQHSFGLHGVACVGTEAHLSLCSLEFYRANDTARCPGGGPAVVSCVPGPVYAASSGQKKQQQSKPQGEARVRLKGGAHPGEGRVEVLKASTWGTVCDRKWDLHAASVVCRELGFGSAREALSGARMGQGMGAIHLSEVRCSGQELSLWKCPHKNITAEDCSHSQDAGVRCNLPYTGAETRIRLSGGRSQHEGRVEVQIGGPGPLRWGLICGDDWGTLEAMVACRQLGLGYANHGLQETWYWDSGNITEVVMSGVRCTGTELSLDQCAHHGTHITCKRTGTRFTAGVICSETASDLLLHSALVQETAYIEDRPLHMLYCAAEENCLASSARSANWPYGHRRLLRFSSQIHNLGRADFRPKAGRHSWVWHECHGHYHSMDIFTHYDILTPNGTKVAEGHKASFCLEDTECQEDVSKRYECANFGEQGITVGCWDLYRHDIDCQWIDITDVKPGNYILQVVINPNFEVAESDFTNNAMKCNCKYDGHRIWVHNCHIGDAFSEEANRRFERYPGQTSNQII

Molecule: Cc1c(-c2cccc(S(=O)(=O)N(C)C)c2)c2ncccc2n1C/C(F)=C/CN.Cl.Cl [PXS-5153A]
- enzyme inhibition (LOXL2 [1]): complete and irreversible enzyme inhibition
- enzyme inhibition (LOXL3): complete and irreversible enzyme inhibition
- LOXL2-mediated collagen oxidation and cross-linking [2]: reduce LOXL2-mediated collagen oxidation and cross-linking, in a dose-dependent manner

Molecule: NC/C=C(\F)CS(=O)(=O)c1cccc2cccnc12 [PXS-5505]
- fibrosis [3]: significant reductions in fibrosis
- tolerability [4]: well tolerated

Molecule: CS(=O)(=O)c1cc(-c2ccccc2)cc(S(=O)(=O)c2ccc(CN)s2)c1 [CCT365623]
- metastasis (breast cancer models): reduced metastasis
- tumor growth (breast cancer models): decreased tumor growth

Molecule: Cc1nc(N)sc1-c1csc(Nc2ccc(S(N)(=O)=O)cc2)n1 [compound 6405, 4-((2′-amino-4′-methyl-[4,5′-bithiazol]-2-yl)amino)benzenesulfonamide]
- ECM crosslinking (collagen and fibronectin staining) [5]: decrease in ECM crosslinking
- cell viability (cytotoxicity in normal cells) (MCF12A): No significant effect on the viability
- cell viability (cytotoxicity in normal cells) (HFF): No significant effect on the viability
- cell viability (cytotoxicity in normal cells) (HUVEC): No significant effect on the viability

- IC50 [6]: 7.5 µM
Molecule: COCCC(=O)Nc1ccc(Nc2nc(-c3sc(N)nc3C)cs2)cc1 [compound 6425, N-[4-[[4-(2-amino-4-methyl-thiazol-5-yl)thiazol-2-yl]amino]phenyl]-3-methoxy-propanamide]

- IC50 [6]: 2 µM
Molecule: CCCCC(=O)Nc1ccc(Nc2nc(-c3sc(N)nc3C)cs2)cc1 [compound 6426, N-[4-[[4-(2-amino-4-methyl-thiazol-5-yl)thiazol-2-yl]amino]phenyl]pentanamide]

B1: Simtuzumab: non-competitive LOXL2 targeting humanized monoclonal antibody (antibody, chains of the INN, looked up, V domains shown)
VH: QVQLVQSGAEVKKPGASVKVSCKASGYAFTYYLIEWVRQAPGQGLEWIGVINPGSGGTNYNEKFKGRATITADKSTSTAYMELSSLRSEDTAVYFCARNWMNFDYWGQGTTVTVSS
VL: DIVMTQTPLSLSVTPGQPASISCRSSKSLLHSNGNTYLYWFLQKPGQSPQFLIYRMSNLASGVPDRFSGSGSGTDFTLKISRVEAEDVGVYYCMQHLEYPYTFGGGTKVEIK
- clinical benefit (LOXL2 [7]): minimal
- tolerability (LOXL2 [7]): well-tolerated
